Patent publication US8715735B2, “Stabilised supersaturated solids of lipophilic drugs” (Bayer Intellectual Property GmbH, priority 2004, dated 2014)

Experiments:
[1] = In-vitro dissolution test, USP XXVIII paddle apparatus 2, 0.4% aqueous sodium dodecyl sulfate; format: physicochemical; conditions: approx. 1 mg estradiol valerate tested, 1000 mL 0.4% SDS, 37° C., 75 rpm
Description: Formulations according to the examples 1 to 4 were investigated in an in-vitro dissolution test according to USP XXVIII Paddle apparatus 2 using 1000 mL of an 0.4% aqueous solution of sodium dodecyl sulfate as dissolution medium to ensure sink condition (37° C., 75 rpm). The amount of formulations to be tested was selected so that the composition contains approx. 1 mg of estradiol valerate. As reference, 1 mg unformulated estradiol valerate was investigated.

[2] = Saturation concentration of estradiol valerate in solvent at room temperature; format: physicochemical
Description: The resulting liquid is mixed with 1000 g Aeroperl® 300 to give a powder with homogeneously absorbed liquid. 24 mg of the described stabilised supersaturated formulation contains 1 mg estradiol valerate. […] The resulting liquid is mixed with 1667 g Aeroperl® 300 to give a powder with homogeneously absorbed liquid. 67 mg of the described stabilised supersaturated formulation contains 1 mg estradiol valerate. […] The resulting liquid is mixed with 1000 g Aeroperl® 300 to give a powder with homogeneously absorbed liquid. 44 mg of the described stabilised supersaturated formulation contains 1 mg estradiol valerate.

CCCCC(=O)O[C@H]1CC[C@H]2[C@@H]3CCc4cc(O)ccc4[C@H]3CC[C@]12C [estradiol valerate]
Release estradiol valerate, 3 min ([1]; 3 min): 0.34 mg
Release estradiol valerate, 6 min ([1]; 6 min): 0.41 mg
Release estradiol valerate, 10 min ([1]; 10 min): 0.47 mg
Release estradiol valerate, 15 min ([1]; 15 min): 0.67 mg
Release estradiol valerate, 30 min ([1]; 30 min): 0.76 mg
saturation concentration ([2]; in medium chain triglycerides (MCT) at room temperature): approx. 27 g/L
saturation concentration ([2]; in peanut oil at room temperature): approx. 30 g/L
saturation concentration ([2]; in polyethylene glycol (PEG) 400 at room temperature): approx. 50 g/L
